Laboratory results reported in patent US20260250290A1 (BRISTOL-MYERS SQUIBB COMPANY, priority 2023, published 2026).
Counter-ions that a name gives are not always drawn.

target: T1, full length SGK1 (Homo sapiens, UniProt O00141); assay: SGK1 inhibition Assay A (Caliper LabChip electrophoretic separation of fluorescent peptide substrate and phosphorylated product); format: biochemical; conditions: Assay A; 20 μM ATP, 40 min incubation; read-out: SGK1 IC50
T1 construct: 125 μM full length SGK1 (Life Technologies Part #PR7358A); purchased Life Technologies PR7358A
T1 sequence (O00141 1-431): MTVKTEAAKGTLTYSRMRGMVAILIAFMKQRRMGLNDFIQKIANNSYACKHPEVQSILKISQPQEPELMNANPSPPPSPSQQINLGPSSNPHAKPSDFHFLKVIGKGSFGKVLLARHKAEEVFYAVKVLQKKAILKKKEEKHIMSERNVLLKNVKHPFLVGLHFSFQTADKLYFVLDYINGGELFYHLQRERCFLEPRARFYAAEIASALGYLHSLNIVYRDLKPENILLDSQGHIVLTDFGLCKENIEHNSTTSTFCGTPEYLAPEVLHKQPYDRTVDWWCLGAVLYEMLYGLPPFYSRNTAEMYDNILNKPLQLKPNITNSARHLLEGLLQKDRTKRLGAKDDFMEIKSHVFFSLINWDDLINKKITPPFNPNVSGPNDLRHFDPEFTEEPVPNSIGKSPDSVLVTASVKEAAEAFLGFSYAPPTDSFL

Row | Structure (SMILES) | IC50
1 | CC(=O)N1CC=C(c2cc(N3CCC[C@@H](NC(=O)c4cccc(N5CC6(CN(C)C6)C5)n4)C3)c3c(N)ncnn23)C1 [Example 784, (R)-N-(1-(7-(1-acetyl-2,5-dihydro-1H-pyrrol-3-yl)-4-aminopyrrolo[2,1-f][1,2,4]triazin-5-yl)piperidin-3-yl)-6-(6-methyl-2,6-diazaspiro[3.3]heptan-2-yl)picolinamide] | 20 nM
2 | CN1CCN(c2cccc(C(=O)N[C@@H]3CCCN(c4cc(-c5ccc(C#N)nc5)n5ncnc(N)c45)C3)n2)CC1 [Example 785, (R)—N-(1-(4-amino-7-(6-cyanopyridin-3-yl)pyrrolo[2,1-f][1,2,4]triazin-5-yl)piperidin-3-yl)-6-(4-methylpiperazin-1-yl)picolinamide] | 7 nM
3 | COc1cc(-c2cc(N3CCC[C@@H](NC(=O)c4cccc(N5CCN(C)CC5)n4)C3)c3c(N)ncnn23)ccn1 [Example 786, (R)-N-(1-(4-amino-7-(2-methoxypyridin-4-yl)pyrrolo[2,1-f][1,2,4]triazin-5-yl)piperidin-3-yl)-6-(4-methylpiperazin-1-yl)picolinamide] | 6 nM
4 | CN1CCN(c2cccc(C(=O)N[C@@H]3CCCN(c4cc(-c5cncnc5)n5ncnc(N)c45)C3)n2)CC1 [Example 787, (R)-N-(1-(4-amino-7-(pyrimidin-5-yl)pyrrolo[2,1-f][1,2,4]triazin-5-yl)piperidin-3-yl)-6-(4-methylpiperazin-1-yl)picolinamide] | 77 nM
5 | COc1ncc(-c2cc(N3CCC[C@@H](NC(=O)c4cccc(N5CCN(C)CC5)n4)C3)c3c(N)ncnn23)cn1 [Example 788, (R)-N-(1-(4-amino-7-(2-methoxypyrimidin-5-yl)pyrrolo[2,1-f][1,2,4]triazin-5-yl)piperidin-3-yl)-6-(4-methylpiperazin-1-yl)picolinamide] | 434 nM
6 | CC(=O)c1ncc(-c2cc(N3CCC[C@@H](NC(=O)c4cccc(N5CCN(C)CC5)n4)C3)c3c(N)ncnn23)s1 [Example 791, (R)-N-(1-(7-(2-acetylthiazol-5-yl)-4-aminopyrrolo[2,1-f][1,2,4]triazin-5-yl)piperidin-3-yl)-6-(4-methylpiperazin-1-yl)picolinamide] | 15 nM
7 | CC(C)n1cc(-c2cc(N3CCC[C@@H](NC(=O)c4cccc(N5CCN(C)CC5)n4)C3)c3c(N)ncnn23)ccc1=O [Example 792, (R)-N-(1-(4-amino-7-(1-isopropyl-6-oxo-1,6-dihydropyridin-3-yl)pyrrolo[2,1-f][1,2,4]triazin-5-yl)piperidin-3-yl)-6-(4-methylpiperazin-1-yl)picolinamide] | 29 nM
8 | CN1CCN(c2cccc(C(=O)N[C@@H]3CCCN(c4cc(-c5ccnn5C)n5ncnc(N)c45)C3)n2)CC1 [Example 795, (R)-N-(1-(4-amino-7-(1-methyl-1H-pyrazol-5-yl)pyrrolo[2,1-f][1,2,4]triazin-5-yl)piperidin-3-yl)-6-(4-methylpiperazin-1-yl)picolinamide] | 88 nM
9 | CC(C)n1nccc1-c1cc(N2CCC[C@@H](NC(=O)c3cccc(N4CCN(C)CC4)n3)C2)c2c(N)ncnn12 [Example 796, (R)-N-(1-(4-amino-7-(1-isopropyl-1H-pyrazol-5-yl)pyrrolo[2,1-f][1,2,4]triazin-5-yl)piperidin-3-yl)-6-(4-methylpiperazin-1-yl)picolinamide] | 785 nM
10 | CN1CCN(c2cccc(C(=O)N[C@@H]3CCCN(c4cc(-c5ccc(=O)n(C)c5)n5ncnc(N)c45)C3)n2)CC1 [Example 797, (R)-N-(1-(4-amino-7-(1-methyl-6-oxo-1,6-dihydropyridin-3-yl)pyrrolo[2,1-f][1,2,4]triazin-5-yl)piperidin-3-yl)-6-(4-methylpiperazin-1-yl)picolinamide] | 13 nM
11 | CN1CCN(c2cccc(C(=O)N[C@@H]3CCCN(c4cc(-c5ccc(=O)[nH]c5)n5ncnc(N)c45)C3)n2)CC1 [Example 798, (R)-N-(1-(4-amino-7-(6-oxo-1,6-dihydropyridin-3-yl)pyrrolo[2,1-f][1,2,4]triazin-5-yl)piperidin-3-yl)-6-(4-methylpiperazin-1-yl)picolinamide] | 21 nM
12 | CCn1cc(-c2cc(N3CCC[C@@H](NC(=O)c4cccc(N5CCN(C)CC5)n4)C3)c3c(N)ncnn23)ccc1=O [Example 799, (R)-N-(1-(4-amino-7-(1-ethyl-6-oxo-1,6-dihydropyridin-3-yl)pyrrolo[2,1-f][1,2,4]triazin-5-yl)piperidin-3-yl)-6-(4-methylpiperazine-1-yl)picolinamide] | 3 nM
13 | CN1CCN(c2cccc(C(=O)N[C@@H]3CCCN(c4cc(-c5ccc(-n6cncn6)nc5)n5ncnc(N)c45)C3)n2)CC1 [Example 800, (R)-N-(1-(7-(6-(1H-1,2,4-triazol-1-yl)pyridin-3-yl)-4-aminopyrrolo[2,1-f][1,2,4]triazin-5-yl)piperidin-3-yl)-6-(4-methylpiperazin-1-yl)picolinamide] | 17 nM
14 | CC(=O)c1ccc(-c2cc(N3CCC[C@@H](NC(=O)c4cccc(N5CCN(C)CC5)n4)C3)c3c(N)ncnn23)cc1 [Example 801, (R)-N-(1-(7-(4-acetylphenyl)-4-aminopyrrolo[2,1-f][1,2,4]triazin-5-yl)piperidin-3-yl)-6-(4-methylpiperazin-1-yl)picolinamide] | 26 nM
15 | CN1CCN(c2cccc(C(=O)N[C@@H]3CCCN(c4cc(-c5ccn(C)c(=O)c5)n5ncnc(N)c45)C3)n2)CC1 [Example 802, (R)-N-(1-(4-amino-7-(1-methyl-2-oxo-1,2-dihydropyridin-4-yl)pyrrolo[2,1-f][1,2,4]triazin-5-yl)piperidin-3-yl)-6-(4-methylpiperazin-1-yl)picolinamide] | 237 nM
16 | CN1CCN(c2cccc(C(=O)N[C@@H]3CCCN(c4cc(-c5cnn(C6CCOC6)c5)n5ncnc(N)c45)C3)n2)CC1 (stereo partly drawn) [Example 803, N-((3R)-1-(4-amino-7-(1-(tetrahydrofuran-3-yl)-1H-pyrazol-4-yl)pyrrolo[2,1-f][1,2,4]triazin-5-yl)piperidin-3-yl)-6-(4-methylpiperazin-1-yl)picolinamide] | 2050 nM
17 | COc1ccc(OC(=O)N[C@@H]2CCCN(c3cc(C4=CCN(C(C)=O)C4)n4ncnc(N)c34)C2)cc1 [Example 812, 4-methoxyphenyl (R)-(1-(7-(1-acetyl-2,5-dihydro-1H-pyrrol-3-yl)-4-aminopyrrolo[2,1-f][1,2,4]triazin-5-yl)piperidin-3-yl)carbamate TFA salt] | 984 nM
18 | CC(=O)N1CC=C(c2cc(N3CCC[C@@H](NC(=O)c4cccc(N5CCNCC5)n4)C3)c3c(N)ncnn23)C1 [Example 813, (R)—N-(1-(7-(1-acetyl-2,5-dihydro-1H-pyrrol-3-yl)-4-aminopyrrolo[2,1-f][1,2,4]triazin-5-yl)piperidin-3-yl)-6-(piperazin-1-yl)picolinamide] | 32 nM
19 | CC(=O)N1CC=C(c2cc(N3CCC[C@@H](NC(=O)c4cccc(N5C[C@H]6CC[C@@H](C5)N6)n4)C3)c3c(N)ncnn23)C1 [Example 814, N—((R)-1-(7-(1-acetyl-2,5-dihydro-1H-pyrrol-3-yl)-4-aminopyrrolo[2,1-f][1,2,4]triazin-5-yl)piperidin-3-yl)-6-((1R,5S)-3,8-diazabicyclo[3.2.1]octan-3-yl)picolinamide] | 9 nM
